Tests used:
Smn protein = Smn protein assay (HTRF) in cultured cells (SMA patient fibroblasts GM03813); assay type: cell-based, human; settings: 48 hours; for EC1.5x for Smn protein expression: SMA patient fibroblast cells (GM03813), HTRF, 7-point concentration data, concentration producing 1.5 times Smn protein vs DMSO vehicle control; for maximum fold (Fold) increase of Smn protein: SMA patient fibroblast cells, 7-point concentration curve, relative to vehicle control
In short: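 SMA patient fibroblasts (GM03813) were treated 48 h at 37° C with a 7-point, 3.16-fold compound series in triplicate, then lysed in RIPA. Smn was read by HTRF (anti-SMN d2/kryptate, 665/620 nm ratio). ΔF versus blank was divided by vehicle ΔF to give fold Smn increase.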

[1] = tested on: SMN2 minigene mRNA (SMN2-A minigene construct); assay: SMN2 minigene mRNA splicing RT-qPCR assay in cultured cells; assay type: cell-based, human; settings: Homo sapiens, HEK293-H; HEK293H cells stably transfected with SMN2-A minigene, 24 hours, 7-point concentration data; concentration giving 1.5-fold SMN2 full length mRNA relative to vehicle-treated cells; read-out: EC1.5x for production of full length SMN2 mRNA
In short: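 Full-length SMN2 minigene mRNA, measured by exon 7/luciferase-specific RT-qPCR that excludes endogenous SMN1/SMN2, was normalized to GAPDH and expressed relative to vehicle-treated cells via modified ΔΔCt. Stably transfected HEK293H cells received compound (7-point, 3.16-fold series, duplicates) for 24 h at 37 °C.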

melting point	SMILES	EC1.5x for Smn protein expression (Smn protein)	maximum fold (Fold) increase of Smn protein (Smn protein)	EC (1.5-fold) [1]
216 to 219 °C	C[C@@H]1CN(c2ccc3cc(-c4cn5ccccc5n4)c(=O)oc3n2)CCN1C [Cpd 82, 7-[(3R)-3,4-dimethylpiperazin-1-yl]-3-(imidazo[1,2-a]pyridin-2-yl)-2H-pyrano[2,3-b]pyridin-2-one]	*** (an EC1.5× between >0.3 μM and ≦1 μM is indicated by three stars (***))	**** (a fold increase between >1.5 and ≦1.65 is indicated by four stars (****))	0.1 to 0.3 µM
223 to 227 °C	C[C@@H]1CN[C@@H](C)CN1c1ccc2cc(-c3nc4c(Cl)cccc4s3)c(=O)oc2n1 [Cpd 85, 3-(4-chloro-1,3-benzothiazol-2-yl)-7-[(2R,5S)-2,5-dimethylpiperazin-1-yl]-2H-pyrano[2,3-b]pyridin-2-one]		** (a fold increase between >1.2 and ≦1.35 is indicated by two stars (**))	0.1 to 0.3 µM
233 to 234 °C	C[C@@H]1CN(C)[C@@H](C)CN1c1ccc2cc(-c3nc4c(Cl)cccc4s3)c(=O)oc2n1 [Cpd 86, 3-(4-chloro-1,3-benzothiazol-2-yl)-7-[(2R,5S)-2,4,5-trimethylpiperazin-1-yl]-2H-pyrano[2,3-b]pyridin-2-one]		** (a fold increase between >1.2 and ≦1.35 is indicated by two stars (**))	0.3 to 1 µM
225 to 229 °C	Cc1ccc2nc(-c3cc4ccc(N5C[C@H](C)NC[C@H]5C)nc4oc3=O)cn2c1 [Cpd 87, 7-[(2R,5S)-2,5-dimethylpiperazin-1-yl]-3-(6-methylimidazo[1,2-a]pyridin-2-yl)-2H-pyrano[2,3-b]pyridin-2-one]	**** (an EC1.5×≦0.3 μM is indicated by four stars (****))	***** (a fold increase >1.65 is indicated by five stars (*****))	0.1 to 0.3 µM
273 to 276 °C	Cc1cn2cc(-c3cc4ccc(N5CCCNCC5)nc4oc3=O)nc2c(C)n1.Cl [Cpd 89, 7-(1,4-diazepan-1-yl)-3-(6,8-dimethylimidazo[1,2-a]pyrazin-2-yl)-2H-pyrano[2,3-b]pyridin-2-one hydrochloride]	**** (an EC1.5×≦0.3 μM is indicated by four stars (****))	**** (a fold increase between >1.5 and ≦1.65 is indicated by four stars (****))	≤ 0.1 µM
279 to 282 °C	Cc1cn2cc(-c3cc4ccc(N5C[C@@H](C)N[C@@H](C)C5)nc4oc3=O)nc2c(C)n1 [Cpd 90, 3-(6,8-dimethylimidazo[1,2-a]pyrazin-2-yl)-7-[(3R,5S)-3,5-dimethylpiperazin-1-yl]-2H-pyrano[2,3-b]pyridin-2-one]	**** (an EC1.5×≦0.3 μM is indicated by four stars (****))	***** (a fold increase >1.65 is indicated by five stars (*****))	≤ 0.1 µM
243 to 245 °C	Cc1cn2cc(-c3cc4ccc(N5CCCN(C)CC5)nc4oc3=O)nc2c(C)n1 [Cpd 91, 3-(6,8-dimethylimidazo[1,2-a]pyrazin-2-yl)-7-(4-methyl-1,4-diazepan-1-yl)-2H-pyrano[2,3-b]pyridin-2-one]	**** (an EC1.5×≦0.3 μM is indicated by four stars (****))	***** (a fold increase >1.65 is indicated by five stars (*****))	≤ 0.1 µM
210 to 212 °C	C[C@@H]1CN[C@@H](C)CN1c1ccc2cc(-c3cn4cccc(F)c4n3)c(=O)oc2n1 [Cpd 92, 7-[(2R,5S)-2,5-dimethylpiperazin-1-yl]-3-(8-fluoroimidazo[1,2-a]pyridin-2-yl)-2H-pyrano[2,3-b]pyridin-2-one]	**** (an EC1.5×≦0.3 μM is indicated by four stars (****))	**** (a fold increase between >1.5 and ≦1.65 is indicated by four stars (****))	≤ 0.1 µM
172 to 175 °C	C[C@@H]1CN[C@@H](C)CN1c1ccc2cc(-c3cn4cccc(Cl)c4n3)c(=O)oc2n1 [Cpd 94, 3-(8-chloroimidazo[1,2-a]pyridin-2-yl)-7-[(2R,5S)-2,5-dimethylpiperazin-1-yl]-2H-pyrano[2,3-b]pyridin-2-one]	**** (an EC1.5×≦0.3 μM is indicated by four stars (****))	**** (a fold increase between >1.5 and ≦1.65 is indicated by four stars (****))	≤ 0.1 µM

Further lines, the compound ahead of its results:

SMILES	melting point	EC1.5x for Smn protein expression (Smn protein)	maximum fold (Fold) increase of Smn protein (Smn protein)	EC (1.5-fold) [1]
C[C@H]1CN(C)CCN1c1ccc2cc(-c3cn4cccc(F)c4n3)c(=O)oc2n1 [Cpd 68, 7-[(2S)-2,4-dimethylpiperazin-1-yl]-3-(8-fluoroimidazo[1,2-a]pyridin-2-yl)-2H-pyrano[2,3-b]pyridin-2-one]	210 to 213 °C	*** (an EC1.5× between >0.3 μM and ≦1 μM is indicated by three stars (***))	**** (a fold increase between >1.5 and ≦1.65 is indicated by four stars (****))	≤ 0.1 µM
C[C@H]1CN(c2ccc3cc(-c4cn5cccc(F)c5n4)c(=O)oc3n2)CCN1C [Cpd 69, 7-[(3S)-3,4-dimethylpiperazin-1-yl]-3-(8-fluoroimidazo[1,2-a]pyridin-2-yl)-2H-pyrano[2,3-b]pyridin-2-one]	222 to 225 °C	**** (an EC1.5×≦0.3 μM is indicated by four stars (****))	***** (a fold increase >1.65 is indicated by five stars (*****))	≤ 0.1 µM
C[C@@H]1CN(c2ccc3cc(-c4nc5c(Cl)cccc5s4)c(=O)oc3n2)C[C@H](C)N1 [Cpd 70, 3-(4-chloro-1,3-benzothiazol-2-yl)-7-[(3R,5S)-3,5-dimethylpiperazin-1-yl]-2H-pyrano[2,3-b]pyridin-2-one]	295 to 297 °C		*** (a fold increase between >1.35 and ≦1.5 is indicated by three stars (***))	0.1 to 0.3 µM
C[C@@H]1CN(c2ccc3cc(-c4nc5c(Cl)cccc5s4)c(=O)oc3n2)C[C@H](C)N1C [Cpd 71, 3-(4-chloro-1,3-benzothiazol-2-yl)-7-[(3R,5S)-3,4,5-trimethylpiperazin-1-yl]-2H-pyrano[2,3-b]pyridin-2-one]	286 to 288 °C		** (a fold increase between >1.2 and ≦1.35 is indicated by two stars (**))	0.1 to 0.3 µM
Cc1ccc2nc(-c3cc4ccc(N5CCN(C)[C@@H](C)C5)nc4oc3=O)cn2c1 [Cpd 74, 7-[(3S)-3,4-dimethylpiperazin-1-yl]-3-(6-methylimidazo[1,2-a]pyridin-2-yl)-2H-pyrano[2,3-b]pyridin-2-one]	248 to 252 °C	*** (an EC1.5× between >0.3 μM and ≦1 μM is indicated by three stars (***))	**** (a fold increase between >1.5 and ≦1.65 is indicated by four stars (****))	≤ 0.1 µM
Cc1ccc2nc(-c3cc4ccc(N5CCN(C)[C@H](C)C5)nc4oc3=O)cn2c1 [Cpd 75, 7-[(3R)-3,4-dimethylpiperazin-1-yl]-3-(6-methylimidazo[1,2-a]pyridin-2-yl)-2H-pyrano[2,3-b]pyridin-2-one]	247 to 251 °C	*** (an EC1.5× between >0.3 μM and ≦1 μM is indicated by three stars (***))	**** (a fold increase between >1.5 and ≦1.65 is indicated by four stars (****))	0.1 to 0.3 µM
C[C@@H]1CN(c2ccc3cc(-c4cn5cccc(F)c5n4)c(=O)oc3n2)C[C@H](C)N1 [Cpd 76, 7-[(3R,5S)-3,5-dimethylpiperazin-1-yl]-3-(8-fluoroimidazo[1,2-a]pyridin-2-yl)-2H-pyrano[2,3-b]pyridin-2-one]	247 to 249 °C	**** (an EC1.5×≦0.3 μM is indicated by four stars (****))	***** (a fold increase >1.65 is indicated by five stars (*****))	≤ 0.1 µM
C[C@@H]1CN(c2ccc3cc(-c4cn5cccc(Cl)c5n4)c(=O)oc3n2)C[C@H](C)N1 [Cpd 77, 3-(8-chloroimidazo[1,2-a]pyridin-2-yl)-7-[(3R,5S)-3,5-dimethylpiperazin-1-yl]-2H-pyrano[2,3-b]pyridin-2-one]	240 to 242 °C	**** (an EC1.5×≦0.3 μM is indicated by four stars (****))	***** (a fold increase >1.65 is indicated by five stars (*****))	≤ 0.1 µM
C[C@@H]1CN(c2ccc3cc(-c4cn5cccnc5n4)c(=O)oc3n2)C[C@H](C)N1 [Cpd 78, 7-[(3R,5S)-3,5-dimethylpiperazin-1-yl]-3-(imidazo[1,2-a]pyrimidin-2-yl)-2H-pyrano[2,3-b]pyridin-2-one]	255 to 258 °C	**** (an EC1.5×≦0.3 μM is indicated by four stars (****))	***** (a fold increase >1.65 is indicated by five stars (*****))	0.1 to 0.3 µM
C[C@H]1CN(c2ccc3cc(-c4cn5ccccc5n4)c(=O)oc3n2)CCN1C [Cpd 81, 7-[(3S)-3,4-dimethylpiperazin-1-yl]-3-(imidazo[1,2-a]pyridin-2-yl)-2H-pyrano[2,3-b]pyridin-2-one]	213 to 216 °C	**** (an EC1.5×≦0.3 μM is indicated by four stars (****))	***** (a fold increase >1.65 is indicated by five stars (*****))	0.1 to 0.3 µM
